Measured values published in US20090286827A1, “NOVEL BI-ARYL AMINES” (priority 2006, published 2009).

Target: T1, mGluR5 (Homo sapiens, UniProt P41594)
T1 construct: expressed in transfected cells
Assay: inhibition of the glutamate induced elevation of intracellular Ca2+-concentration
Assay type: cell-based
Settings: inhibition of glutamate induced elevation of intracellular Ca2+ at a concentration of 10 μM
Excerpt: This can be determined in vitro for example at recombinant human metabotropic glutamate receptors, especially PLC-coupled subtypes thereof such as mGluR5, using different procedures like, for example, measurement of the inhibition of the agonist induced elevation of intracellular Ca^2+ concentration in accordance with L. P. Daggett et al., Neuropharm. Vol. 34, pages 871-886 (1995), P. J. Flor et al., J. Neurochem. Vol. 67, pages 58-63 (1996) or by determination to what extent the agonist induced elevation of the inositol phosphate turnover is inhibited as described by T. Knoepfel et al., Eur. J. Pharmacol. Vol. 288, pages 389-392 (1995), L. P. Daggett et al., Neuropharm. Vol. 34, pages 871-886 (1995) and references cited therein. Isolation and expression of human mGluR subtypes are described in U.S. Pat. No. 5,521,297. Selected agents of the invention show IC50 values for the inhibition of the agonist (e.g. glutamate or quisqualate) induced elevation of intracellular Ca2+ concentration or the agonist (e.g. glutamate or quisqualate) induced inositol phosphate turnover, measured in recombinant cells expressing hmGluR5a of about 1 nM to about 50 μM.
Activity of compounds of the present invention was examined by measurement of the inhibition of the glutamate induced elevation of intracellular Ca^2+-concentration following similar methods than those described in L. P. Daggett et al., Neuropharm. Vol. 34, pages 871-886 (1995), P. J. Flor et al., J. Neurochem. Vol. 67, pages 58-63 (1996).
The table below represents percentages of inhibition of the glutamate induced elevation of intracellular Ca^2+-concentration at a concentration of 10 μM.

T1 sequence (P41594 21-1180 isoform P41594-2 limits assumed): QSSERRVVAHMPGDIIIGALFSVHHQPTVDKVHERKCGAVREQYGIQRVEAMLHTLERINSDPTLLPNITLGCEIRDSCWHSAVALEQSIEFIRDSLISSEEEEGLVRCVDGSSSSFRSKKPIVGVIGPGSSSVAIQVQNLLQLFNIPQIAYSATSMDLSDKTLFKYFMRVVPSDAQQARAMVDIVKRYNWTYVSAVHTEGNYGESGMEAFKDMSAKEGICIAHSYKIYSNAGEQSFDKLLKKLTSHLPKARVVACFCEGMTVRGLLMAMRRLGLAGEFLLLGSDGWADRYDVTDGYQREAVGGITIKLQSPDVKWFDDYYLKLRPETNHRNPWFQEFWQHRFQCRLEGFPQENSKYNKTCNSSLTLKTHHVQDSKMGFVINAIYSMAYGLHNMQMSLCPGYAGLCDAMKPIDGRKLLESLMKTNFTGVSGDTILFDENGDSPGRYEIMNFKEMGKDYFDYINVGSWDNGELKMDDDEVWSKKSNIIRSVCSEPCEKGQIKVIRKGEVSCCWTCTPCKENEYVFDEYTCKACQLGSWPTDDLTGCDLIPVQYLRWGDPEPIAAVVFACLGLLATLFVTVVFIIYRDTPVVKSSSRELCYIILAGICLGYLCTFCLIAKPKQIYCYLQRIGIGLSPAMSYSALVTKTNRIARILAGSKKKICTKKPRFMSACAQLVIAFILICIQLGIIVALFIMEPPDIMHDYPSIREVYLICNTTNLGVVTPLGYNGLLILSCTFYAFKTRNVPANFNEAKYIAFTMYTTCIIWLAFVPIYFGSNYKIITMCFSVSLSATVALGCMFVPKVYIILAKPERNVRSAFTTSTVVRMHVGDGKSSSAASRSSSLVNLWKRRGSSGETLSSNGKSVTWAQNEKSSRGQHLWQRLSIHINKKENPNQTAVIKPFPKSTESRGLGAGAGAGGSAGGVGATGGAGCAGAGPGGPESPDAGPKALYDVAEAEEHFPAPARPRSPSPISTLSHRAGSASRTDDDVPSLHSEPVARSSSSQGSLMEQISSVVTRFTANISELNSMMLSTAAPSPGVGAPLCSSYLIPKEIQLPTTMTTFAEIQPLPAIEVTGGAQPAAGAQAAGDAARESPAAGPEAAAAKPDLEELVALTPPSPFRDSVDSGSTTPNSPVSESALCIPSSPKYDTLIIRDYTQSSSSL

Compound	mGluR5 Activity inh. at 10 μM [%]
Clc1ccc(Nc2ccc(-c3nccn3C3CCCCC3)cn2)cc1 [Compound 7, (4-Chloro-phenyl)-[5-(1-yclohexyl-1H-imidazol-2-yl)-pyridin-2-yl]-amine]	27%

Same assay, conditions: inhibition of glutamate induced elevation of intracellular Ca2+ at a concentration of 10 μM; read-out: mGluR5 Activity inh. at 10 μM [%]

Compound	inhibition at 10 µM
Clc1ccc(Nc2ccc(-c3nnc4n3CCCC4)cn2)cc1 [Compound 13, (4-Chloro-phenyl)-[5-(5,6,7,8-tetrahydro-[1,2,4]triazolo[4,3-a]pyridin-3-yl)-pyridin-2-yl]-amine]	95%
Clc1ccc(Nc2ncc(-c3ncc4n3CCCC4)cc2Cl)cc1 [Compound 17, (4-Chloro-phenyl)-[3-chloro-5-(5,6,7,8-tetrahydro-imidazo[1,5-a]pyridin-3-yl)-pyridin-2-yl]-amine]	95%
CCCn1cc(CC)nc1-c1cnc(Nc2ccc(Cl)cc2)c(Cl)c1 [Compound 34, [3-Chloro-5-(4-ethyl-1-propyl-1H-imidazol-2-yl)-pyridin-2-yl]-(4-chloro-phenyl)-amine]	100%
CCn1cc(C)nc1-c1cnc(Nc2ccc(Cl)cc2)c(Cl)c1 [Compound 32, [3-Chloro-5-(1-ethyl-4-methyl-1H-imidazol-2-yl)-pyridin-2-yl]-(4-chloro-phenyl)-amine]	95%
CC(C)c1nccn1-c1cnc(Nc2ccc(Cl)cc2)c(Cl)c1 [Compound 47, [3-Chloro-5-(2-isopropyl-imidazol-1-yl)-pyridin-2-yl]-(4-chloro-phenyl)-amine]	34%
CCn1cccc1-c1cnc(Nc2ccc(Cl)cc2)c(Cl)c1 [Compound 28, [3-Chloro-5-(1-ethyl-1H-pyrrol-2-yl)-pyridin-2-yl]-(4-chloro-phenyl)-amine]	31%
CCCCc1cnnn1-c1cnc(Nc2ccc(Cl)cc2)c(Cl)c1 [Compound 44, [5-(5-Butyl-[1,2,3]triazol-1-yl)-3-chloro-pyridin-2-yl]-(4-chloro-phenyl)-amine]	98%
CCCc1nn[nH]c1-c1cnc(Nc2ccc(Cl)cc2)c(Cl)c1 [Compound 46, (4-Chloro-phenyl)-[3-chloro-5-(5-propyl-3H-[1,2,3]triazol-4-yl)-pyridin-2-yl]-amine]	68%
CC(C)Cn1ccnc1-c1ccc(Nc2ccc(Cl)cc2)nc1 [Compound 5, (4-Chloro-phenyl)-[5-(1-isobutyl-1H-imidazol-2-yl)-pyridin-2-yl]-amine]	95%
CCCCn1cc(C(C)(C)C)nc1-c1cnc(Nc2ccc(Cl)cc2)c(Cl)c1 [Compound 41, [5-(1-Butyl-4-tert-butyl-1H-imidazol-2-yl)-3-chloro-pyridin-2-yl]-(4-chloro-phenyl)-amine]	79%
